Measurements as given in publication PMC5841205, “Pharmacological targeting of apelin impairs glioblastoma growth” (Brain, 2017).
Positions of bridges follow the written chain, without caps; N, C: chain ends. Residues, ends and D or L forms follow the SMILES beside them.

Columns and labels:
tumour-bearing mice = assay: Cardiac frequency, blood pressure and glycaemia, MM54; format: in vivo, mouse; details: MM54 2 mg/kg bi-weekly for 4 weeks
Procedure: To test potential toxic effects of MM54 and MM193 in vivo, mice were administered 2 mg/kg of MM54, MM193 or vehicle bi-weekly for 4 weeks. At sacrifice, blood was taken for analysis and the heart, kidney, aorta and liver removed, weighed and fixed for histological analysis. For the glycaemic study, animals were starved for 6 h prior to sacrifice.
Figure 6 Pharmacological inhibition of APLNR by MM54 reduces xenograft progression. (A) Tumour-bearing mice were fasted for 6 h and the effect of either MM54 (2 mg/kg) or DMSO vehicle treatment on glycaemia measured via blood analysis. (B) Cardiac frequency and blood pressure were measured in random-fed tumour-bearing animals. (C) Nude mice were implanted with GSC#9 (5 × 10^5 cells) in each flank and treated with either DMSO vehicle or the APLNR antagonist (MM54, 2 mg/kg) bi-weekly from Week 4. Tumour volume was measured weekly until Week 11. n = 10/group. (D and E) Cryosections from GSC tumours were assessed for PECAM (red), Ki67 (green), NESTIN (green), SOX2 (green) and apoptosis (TUNEL). (F) Tumour sections were assessed for pS9-GSK3β staining in DMSO vehicle- and MM54-treated animals. Scale bars = 40 µm. […] All panels are representative of n = 3, unless specified.

[1] = Plasma pharmacokinetics after intraperitoneal administration; format: in vivo, mouse
Procedure: B. MM54 compound was solubilized in water and administered intraperitoneally (IP) at the dose of 3.6 mg/kg to healthy mice.
Mice (3/group) were sacrificed at 10 min, 30 min, 60 min, 2h, 4h, 6h, 8h and 24h post-injection. Plasma and brains were collected and further processed for LC-MS/MS analysis. B/P index is 0.24. AUC is area under the curve. n.d. stands for ‘not able to be

[2] = mouse, plasma, healthy mice, IP 3.6 mg/kg in water, 3/group, LC-MS/MS

With `CC(C)C[C@@H]1NC(=O)[C@H](CCCNC(=N)N)NC(=O)[C@@H]2CCCN2C(=O)[C@H](CCCNC(=N)N)NC(=O)[C@@H](NC(=O)[C@H](Cc2c[nH]cn2)NC(=O)[C@H](CCCCN)NC(=O)[C@@H]2CSSC[C@H](N)C(=O)N[C@@H](CCCNC(=N)N)C(=O)N3CCC[C@H]3C(=O)N[C@@H](CCCNC(=N)N)C(=O)N[C@@H](CC(C)C)C(=O)N2)CSSC[C@@H](C(=O)O)NC1=O` [MM54, cyclo(1–6)CRPRLC-KH-cyclo(9–14)CRPRLC] (H-CRPRLCKHCRPRLC-OH; disulfide 1-6, 9-14) as the compound, how does the “cardiac frequency, blood pressure and glycaemic index” value (tumour-bearing mice) read?
Its value is “did not induce alterations to these parameters”.

And the detection in plasma ([1]; healthy animals, intraperitoneal)?
Its detection in plasma is “detected in the plasma and the brain”.

And the “Cmax (µM), plasma” value ([1]; healthy mice, IP 3.6 mg/kg in water, 3/group, LC-MS/MS)?
Its value is 0.6 µM.

And the AUC [1, 2]?
The AUC was 1470 ng·h/mL.

And the half-life [1, 2]?
The half-life was 2.37 ± 0.367 h.

And the Cmax ([1]; mouse, plasma, healthy mice, IP 3.6 mg/kg in water, 3/group, LC-MS/MS, read-out: Cmax (µg.ml-1), plasma)?
Its Cmax is 1.1 µg/mL.

And the Tmax ([1]; mouse, plasma, healthy mice, IP 3.6 mg/kg in water, 3/group, LC-MS/MS, read-out: Time Cmax, plasma (converted))?
Its Tmax is 0.167 h.
